Key:
Assay type in all cases: in vivo, mouse
Tsc2^+/− mice = experiment: Contextual fear discrimination test in Tsc2+/- mice (memory impairment of tuberous sclerosis); conditions: 40 mg/kg orally, single administration six hours before FS, measured on the next day in the same box, vs vehicle group
Experimental: Tsc2^+/− mice were prepared by breeding/crossing according to a known method (Kobayashi, T., et al., Renal carcinogenesis, hepatic hemangiomatosis, and embryonic lethality caused by a germ-line Tsc2 mutation in mice. Cancer Res, 1999. 59(6): p. 1206-11).
A contextual fear discrimination test (Auerbach, B. D., E. K. Osterweil, and M. F. Bear, Mutations causing syndromic autism define an axis of synaptic pathophysiology. Nature, 2011. 480(7375): p. 63-8.) was carried out to measure the contextual fear memory of mice. More specifically, each mouse was placed in a cage for application of foot shock (FS), and FS was applied to the mouse. On the next day, the mouse was returned to the same cage (familiar condition), and the freeze time was measured (FIG. 1a). In order to investigate the effect of tipifarnib or lonafarnib (which may be hereinafter simply referred to as “active component”), a vehicle (carboxymethyl cellulose) and the active component were orally administered to mice, and FS was applied to each mouse 6 hours later. On the next day, the mouse was returned to the same cage to compare the freeze time. […]
Six hours before FS, lonafarnib (40 mg/kg) or tipifarnib (40 mg/kg) was orally administered to the Tsc2^+/− mice, and contextual fear memory was investigated (FIG. 1a). On the next day, the mice were returned to the box in which the FS was applied, and the freeze time was measured.

[1] = tested on: mice to which pentylenetetrazol was administered; experiment: Contextual fear discrimination test in pentylenetetrazol-treated mice (epilepsy-induced memory impairment); conditions: mice given pentylenetetrazol 10 times; single administration 40 mg/kg, i.p.
[2] = tested on: mice to which kainic acid was administered during the neonatal period; experiment: Three-chamber test in mice given kainic acid in the neonatal period (autism-like abnormality of social behavior); conditions: mice given kainic acid 1.5 mg/kg one week after birth, tested two months later; single administration 40 mg/kg, i.p.
[3] = tested on: GFAP-Cre; Tsc1^fl/fl (GFAP-Tsc1 cKO) mice; experiment: Three-chamber test in GFAP-Tsc1 cKO mice (abnormality of social behavior); conditions: single oral administration (40 mg/kg)
Experimental: By a three-chamber test, social interaction was investigated. This was carried out using an experiment device having three separated chambers between which a mouse can move freely. First, a cage containing a mouse (stranger 1 mouse) was placed in one chamber, and an empty cage was placed in another chamber (FIG. 2a). The subject mouse was placed in the middle chamber, and the length of time when the mouse stayed in each chamber (the chamber staying time in the figure, expressed in (s): seconds) was measured. Subsequently, the mouse (stranger 1 mouse) in the first cage was transferred to the empty cage, and another mouse (stranger 2 mouse) was placed in the cage that became empty (FIG. 2a). Thereafter, the length of time when the subject mouse stayed in the chamber of the first mouse (stranger 1 chamber) and the length of time when the subject mouse stayed in the chamber where the new mouse was staying (stranger 2 chamber) were measured and compared.
These mice were obtained by crossing of GFAP-Cre mice, which show astrocyte-specific Cre expression.
A suspension of 4 mg/ml lonafarnib or tipifarnib (using 1 w/v % CMC, 0.9 w/v % NaCl, and 5 v/v % DMSO as a vehicle) was prepared and orally administered at 40 mg/kg. A solution of 2 mg/ml pentylenetetrazol (PTZ) (using 0.9 w/v % NaCl as a vehicle) was prepared and intraperitoneally administered. […]

NC(=O)N1CCC(CC(=O)N2CCC([C@H]3c4ncc(Br)cc4CCc4cc(Cl)cc(Br)c43)CC2)CC1 [lonafarnib]
freeze time (contextual fear memory) (Tsc2^+/− mice): increases in the freeze behavior
contextual fear memory (freeze time), pentylenetetrazol-induced memory impairment [1]: pentylenetetrazol-induced memory impairment could also be improved
staying time in the chamber of the stranger 2 (time spent in chamber) [2]: significantly longer
staying time in the chamber of the stranger 2 [3]: significantly longer

Cn1cncc1[C@@](N)(c1ccc(Cl)cc1)c1ccc2c(c1)c(-c1cccc(Cl)c1)cc(=O)n2C [tipifarnib, 6-[(R)-amino(4-chlorophenyl)(1-methyl-1H-imidazol-5-yl)methyl]-4-(3-chlorophenyl)-1-methyl-2(1H)-quinolinone]
freeze time (contextual fear memory) (Tsc2^+/− mice): increases in the freeze behavior
